From paper PMC5216056 (Nature Communications, 2017)
Where “and” joins values, the source holds several entries; their conditions need not be identical. Equal entries are not always repeated. Where two headings read alike, the source gives them in different places.

Assays:
hDAGL-α = target: T1, hDAGL-α (Homo sapiens, UniProt Q9Y4D2); assay: Biochemical DAGLα activity assay; conditions: for inhibition at 10 µM: read-out: DAGL % inhibition at 10 µM ± SD
T1 construct: expressed in transfected cells; host or cells: HEK293T (transient), membrane preparation
T1 sequence (Q9Y4D2 1-1042): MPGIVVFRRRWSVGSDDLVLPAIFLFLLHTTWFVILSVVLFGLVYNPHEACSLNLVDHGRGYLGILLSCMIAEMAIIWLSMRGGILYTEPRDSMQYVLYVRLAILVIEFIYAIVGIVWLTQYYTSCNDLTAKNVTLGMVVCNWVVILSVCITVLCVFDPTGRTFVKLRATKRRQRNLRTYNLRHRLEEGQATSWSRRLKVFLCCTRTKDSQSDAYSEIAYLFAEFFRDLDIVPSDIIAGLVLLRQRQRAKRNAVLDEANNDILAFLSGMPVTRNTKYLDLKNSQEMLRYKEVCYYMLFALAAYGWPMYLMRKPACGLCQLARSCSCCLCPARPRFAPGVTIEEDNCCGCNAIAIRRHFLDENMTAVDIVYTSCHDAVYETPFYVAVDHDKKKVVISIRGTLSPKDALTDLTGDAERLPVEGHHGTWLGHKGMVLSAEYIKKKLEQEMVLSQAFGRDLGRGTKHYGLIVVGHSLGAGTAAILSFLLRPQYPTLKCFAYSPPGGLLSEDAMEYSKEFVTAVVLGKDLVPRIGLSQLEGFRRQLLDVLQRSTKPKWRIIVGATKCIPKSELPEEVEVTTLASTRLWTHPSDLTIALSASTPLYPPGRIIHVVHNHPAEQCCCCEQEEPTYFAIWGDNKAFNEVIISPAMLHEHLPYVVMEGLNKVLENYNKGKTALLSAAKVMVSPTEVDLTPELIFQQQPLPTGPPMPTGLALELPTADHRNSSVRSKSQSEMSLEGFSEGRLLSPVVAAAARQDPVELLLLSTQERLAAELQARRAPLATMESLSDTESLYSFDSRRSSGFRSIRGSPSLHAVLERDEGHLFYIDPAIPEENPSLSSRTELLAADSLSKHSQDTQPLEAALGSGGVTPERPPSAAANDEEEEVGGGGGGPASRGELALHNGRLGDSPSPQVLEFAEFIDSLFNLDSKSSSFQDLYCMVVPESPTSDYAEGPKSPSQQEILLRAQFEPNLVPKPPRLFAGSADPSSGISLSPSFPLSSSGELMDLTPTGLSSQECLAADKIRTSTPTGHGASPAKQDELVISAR
Procedure: Cell culture and membrane preparation were performed as previously described. HEK293T cells (source: Dutch Cancer Institute) were grown in DMEM with stable glutamine and phenolred (PAA), 10% New Born Calf serum, penicillin and streptomycin. Cells were passaged every 2–3 days by resuspending in medium and seeding them to appropriate confluence. Membranes were prepared from transiently transfected HEK293T cells. One day prior to transfection 10^7 cells were seeded in a 15 cm petri dish. Cells were transfected by the addition of a 3:1 mixture of polyethyleneimine (60 μg) and plasmid DNA (20 μg) in 2 ml serum-free medium. The medium was refreshed after 24 h, and after 72 h the cells were harvested by suspending them in 20 ml medium. The suspension was centrifuged for 10 min at 1000, rpm, and the supernatant was removed. The cell pellet was stored at −80 °C until use. Cell pellets were thawed on ice and suspended in lysis buffer A (20 mM HEPES, 2 mM DTT, 0.25 M sucrose, 1 mM MgCl2, […] Benzonase). The suspension was homogenized by polytrone (3 × 7 s) and incubated for 30 min on ice. The suspension was subjected to ultracentrifugation (100,000 × g, 30 min, 4 °C, Beckman Coulter, Type Ti70 rotor) to yield the cytosolic fraction in the supernatant and the membrane fraction as a pellet. The pellet was resuspended in lysis buffer B (20 mM HEPES, 2 mM DTT). The protein concentration was determined with Quick Start Bradford assay (Biorad). The protein fractions were diluted to a total protein concentration of 1 mg ml^−1 and stored in small aliquots at −80 °C until use.
hDAGL-α activity was measured by the extent of the hydrolysis of para-nitrophenylbutyrate (PNP-butyrate) by membrane preparations from HEK293T cells (source: Dutch Cancer Institute) transiently transfected with hDAGL-α (ref. [43]). Percentage of inhibition of reference ligands was determined in comparison with an untreated control. Reactions were performed in 50 mM pH 7.2 HEPES buffer with 0.05 μg μl^−1 final protein concentration hDAGL-α transfected protein.

[1] = test system: AEA reuptake in HaCaT cells; assay: cells; format: cell-based, human; conditions: for AEA reuptake % inhibition, effect at 10 µM, HaCaT cells / inhibition at 10 µM: 10 µM (values marked *); for IC50: read-out: AEA reuptake IC50 (95% CI) HaCaT cells; for AEA reuptake Efficacy (% inhibition) HaCaT cells: from dose-response; for inhibition at 10 µM: read-out: AEA reuptake % inhibition, effect at 10 µM, HaCaT cells
GR (h) = target: T2, GR (h) (Homo sapiens, UniProt P04150); assay: CEREP panel; format: binding; conditions: for inhibition at 10 µM: read-out: % inhibition GR (h)
T2 construct: CEREP (contract assay)
T2 sequence (P04150 1-777): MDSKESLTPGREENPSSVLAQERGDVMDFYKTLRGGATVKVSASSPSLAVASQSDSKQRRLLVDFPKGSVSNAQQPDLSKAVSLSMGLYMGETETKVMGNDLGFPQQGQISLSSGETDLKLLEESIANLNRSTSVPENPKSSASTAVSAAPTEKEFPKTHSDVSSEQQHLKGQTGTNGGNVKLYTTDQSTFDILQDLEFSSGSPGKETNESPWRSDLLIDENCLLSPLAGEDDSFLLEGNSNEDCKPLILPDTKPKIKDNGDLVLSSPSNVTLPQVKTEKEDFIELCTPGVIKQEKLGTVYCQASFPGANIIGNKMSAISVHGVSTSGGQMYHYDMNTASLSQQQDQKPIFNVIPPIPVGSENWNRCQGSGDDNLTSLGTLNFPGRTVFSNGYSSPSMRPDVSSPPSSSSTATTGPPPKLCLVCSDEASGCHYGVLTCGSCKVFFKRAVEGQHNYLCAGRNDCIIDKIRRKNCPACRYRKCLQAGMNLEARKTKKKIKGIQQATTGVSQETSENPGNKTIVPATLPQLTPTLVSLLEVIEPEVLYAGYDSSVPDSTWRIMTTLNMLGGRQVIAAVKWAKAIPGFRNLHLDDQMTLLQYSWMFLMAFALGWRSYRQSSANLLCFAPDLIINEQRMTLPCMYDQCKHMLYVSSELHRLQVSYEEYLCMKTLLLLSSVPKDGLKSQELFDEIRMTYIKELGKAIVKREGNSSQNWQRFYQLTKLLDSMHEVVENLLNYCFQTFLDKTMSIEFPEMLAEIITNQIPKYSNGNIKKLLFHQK

[2] = for Pct acceptor / Pct donor / Pct membrane: PAMPA; for Pct membrane: compound found in membranes; for Pampa Peff: membrane permeation coefficient
hCB2R = hCB2R (Homo sapiens, UniProt P34972); assay: cell-based; format: cell-based; design: expressed in transfected cells; host or cells: Flp-In-293 (Invitrogen #R750-07), pcDNA5/FRT; conditions: for Emax: read-out: Emax ± SEM pERK hCB2R
hCB2R, sequence (P34972 whole entry): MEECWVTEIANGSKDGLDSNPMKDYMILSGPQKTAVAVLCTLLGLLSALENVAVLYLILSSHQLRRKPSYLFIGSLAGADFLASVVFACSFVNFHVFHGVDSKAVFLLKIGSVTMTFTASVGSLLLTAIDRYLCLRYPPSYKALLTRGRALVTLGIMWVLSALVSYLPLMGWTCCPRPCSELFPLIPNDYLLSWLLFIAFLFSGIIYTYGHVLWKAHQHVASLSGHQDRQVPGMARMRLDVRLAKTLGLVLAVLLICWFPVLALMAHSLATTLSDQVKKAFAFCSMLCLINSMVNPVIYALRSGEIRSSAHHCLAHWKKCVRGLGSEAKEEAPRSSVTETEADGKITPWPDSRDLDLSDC

Compound	DAGL % inhibition at 10 µM ± SD (hDAGL-α) [%]	AEA reuptake % inhibition, effect at 10 µM, HaCaT cells [1] [%]	IC50 [1] [µM]	% inhibition GR (h) (GR (h); 10 µM) [%]	Pct acceptor [2] [%]	Pct donor [2] [%]	Pct membrane [2] [%]	Pampa Peff [2] [cm/s*10-6]	AEA reuptake Efficacy (% inhibition) HaCaT cells [1] [%]	inhibition at 10 µM (hDAGL-α) [%]	further results
CCCCCCC(C)(C)c1cc(OC)c(C2=C[C@H]3CC[C@]2(CO)C3(C)C)c(OC)c1 [HU910]	36 ± 1	38	> 10	4	1	42	57	0.45	–	–	pEC50 ± SEM pERK hCB2R (hCB2R; antagonists in presence of EC80 of CP55940): 5.50 ± 0.10 and < 5.5; Emax ± SEM pERK hCB2R (hCB2R; normalized to 10 µM CP55940): 104 ± 9%
CCCC(C)(C)c1ccc2c(c1)OC(C)(C)[C@@H]1CC=C(C)C[C@@H]21 [JWH133]	30 ± 7	39	> 10	7	2.3	36.1	61.7	1.86	–	–	Emax ± SEM pERK hCB2R (hCB2R): 96 ± 13; pEC50 ± SEM pERK hCB2R (hCB2R): 6.19 ± 0.07
CN1CCCCC1Cn1cc(C(=O)c2cc([N+](=O)[O-])ccc2I)c2ccccc21 (racemic) [(rac)-AM1241]	3 ± 10	–	4.01	–	–	41.3	55.7	1.86±0.62	80	–	CB2R Selectivity pERK (hCB2R): 339; Emax ± SEM pERK hCB2R (hCB2R): 32 ± 12; pEC50 ± SEM pERK hCB2R (hCB2R): 7.6 ± 0.88
Cc1c(C(=O)c2cccc3ccccc23)c2cccc3c2n1[C@H](CN1CCOCC1)CO3 [WIN55212-2]	-9 ± 12	24	> 5	63	0.5	50.6	49	0.25±0.22	–	–	–
SR144528	-28 ± 11	20	> 10	9	–	–	–	–	–	–	Emax ± SEM pERK hCB2R (hCB2R; normalized to 10 µM CP55940): -99 ± 3%
Cc1ccc2c(c1)Cc1c(C(=O)NN3CCCCC3)nn(-c3ccc(Cl)cc3Cl)c1-2 [Gp-1a]	–	–	3.27	71	0	29.7	70.3	0	90	–	Emax ± SEM pERK hCB2R (hCB2R; normalized to 10 µM CP55940): 5 ± 6%
CCCn1c(C)c(C(=O)c2cccc3ccccc23)c2ccccc21 [JWH015]	-8 ± 5	64	> 5	36	–	–	–	–	–	–	–
CCCCC/C=C\C/C=C\C/C=C\C/C=C\CCCC(=O)OC(CO)CO [2-AG, 2-arachidonoyl glycerol]	–	–	–	–	–	–	–	–	–	-12 ± 16	inhibition at 10 µM ([1]; Homo sapiens, HaCaT): 60%; IC50 ([1]; Homo sapiens, HaCaT): > 5 µM; EC50 (hCB2R; pEC50 ± SEM pERK hCB2R): 3.89 µM and > 3.16 µM; Emax (hCB2R): 99 ± 11%
CN1CCCC[C@@H]1Cn1cc(C(=O)c2cc([N+](=O)[O-])ccc2I)c2ccccc21 [(R)-AM1241]	10 ± 12	25	> 5	–	2.1	38.3	59.7	1.22	–	–	Emax ± SEM pERK hCB2R (hCB2R): 75 ± 9; pEC50 ± SEM pERK hCB2R (hCB2R): 7.84 ± 0.29; CB2R Selectivity pERK (hCB2R; 10^(pEC50 CB2R-pEC50 CB1R)): 151 fold
CCCCCCC(C)(C)c1cc(OC)c([C@@H]2C=C(CO)[C@@H]3C[C@H]2C3(C)C)c(OC)c1 [HU308]	–	–	–	–	2.8	23.1	74.3	2.53	69	42 ± 3	IC50 ([1]; Homo sapiens, HaCaT): 2.21 µM; inhibition at 10 µM (GR (h)): 4%; Emax (hCB2R): 93 ± 2%
Cc1c(C(=O)NN2CCCCC2)nn(-c2ccc(Cl)cc2Cl)c1-c1ccc(I)cc1 [AM251]	17 ± 6	–	–	84	–	–	–	–	–	–	Emax ± SEM pERK hCB2R (hCB2R): -90 ± 3
CCCCCCC(C)(C)c1ccc([C@@H]2C[C@H](O)CC[C@H]2CCCO)c(O)c1 [CP55940]	–	–	–	94	–	–	–	0	–	20 ± 16	inhibition at 10 µM ([1]; Homo sapiens, HaCaT): 13%; IC50 ([1]; Homo sapiens, HaCaT): > 10 µM; inhibition at 10 µM (GR (h); 10 µM): 92%
Cc1c(C(=O)NN2CCCCC2)nn(-c2ccc(Cl)cc2Cl)c1-c1ccc(Cl)cc1 [SR141716A]	–	–	–	–	0.3	25.2	74.3	0.27±0.11	80	20 ± 10	inhibition at 10 µM (GR (h); 10 µM): 43%
CCCCC/C=C\C/C=C\C/C=C\C/C=C\CCCC(=O)NCCO [Anandamide, N-arachidonoylethanolamine]	–	–	–	–	1.2	96.3	2.7	0.26	86	32 ± 22	IC50 ([1]; Homo sapiens, HaCaT): 0.27 µM; Emax (hCB2R): 62 ± 2%
